In BindingDB's records for doi:10.1021/acs.jmedchem.5b00109 (Peking Union Medical College, 2015):

Experiment: Inhibition of HIV-1 HXB2 gp41 N-terminal heptad repeat-mediated fusion between infected HL2/3 cells to target TZM-bl cells after 6 hrs by luciferase reporter gene assay

Row | Substance | IC50 [nM]
1 | H-MTWEAWDRAIAEYAARIEALIR-OH | 59
2 | H-MTWEAWDRAIAEYAARIEALIRAAQEQQEKNEAALREL-OH | 0.86
3 | H-MTWEEWDKKIEEYTKKIEELI-OH | 2.2
4 | H-MTWEEWDKKIEEYTKKIEELIKKS-OH | 2.3
5 | H-TTWEAWDRAIAEYAARIEALIR-OH | > 2250
6 | H-TTWEEWDKKIEEYTKKIEELIKKS-OH | 18
7 | H-WEAWDRAIAEYAARIEALIRAAQEQQEKNEAALREL-OH | 0.34
